The subject of one series is mast cells. The experiment in a line: Degranulation of microvascular mast cells after ischemia reperfusion. The series is classed as in vivo, rat. The settings on record: 20 min ischemia, 30 min reperfusion; 100 μM; FIG. 7. How it is done:
(§1) Male Sprague-Dawley rats weighing 200-250 g apiece were maintained on a purified laboratory diet and fasted for 24 hours prior to each experiment. The animals were initially anesthetized with pentobarbital (65 mg/kg body weight) and then a tracheotomy was performed to facilitate breathing during subsequent experimentation. The right carotid artery was cannulated and system arterial pressure was measured with a Statham P23A pressure transducer (Oxnard, Calif.) connected to the carotid artery cannula. Systemic blood pressure and heart rate were continuously recorder with a Grass physiologic recorded (Grass Instruments).
(§2) Rats were placed in a supine position on an adjustable plexiglass microscope stage and the mesentery was prepared for microscopic observation as described previously (Asako et al., Gastroenterology, 103, 146-152 (1992); Kurose et al., Circ. Res., in press (1993)). Briefly, the mesentery was draped over a non-fluorescent coverslip that allowed for observation of a 2 cm^2 segment of tissue. The exposed bowel wall was covered with Saran Wrap (Dow Chemical Co.) and the mesentery was superfused with bicarbonate-buffered saline (pH 7.4, 37° C.) that was bubbled with a mixture of 5% CO2 and […].
(§3) An inverted microscope (TMD-25, Diaphoto, Nikon, Tokyo, Japan) with a 40x objective lens (Fluor, Nikon) was used to observe the mesenteric microcirculation. […] A video camera (VK-C150, Hitachi, Ibaragi, Japan) mounted on the microscope projected the image onto a color monitor (PVM-2030, Sony, Tokyo, Japan) and the images were recorded using a videocassette record (NV8950, Panasonic, Tokyo, Japan). […]
(§4) Single unbranched venules with diameters ranging between 25 and 35 μm and length greater than 150 μm were selected for study. Venular diameter (DV) was measured either on- or off-line using a video caliper (Microcirculation Research Institute, Texas A&M University, College Station, Tex.). Red blood cell centerline velocity (VRBC) was measured in venules using an optical Dopper velocimeter (Microcirculation Research Institute, Texas A&M University, College Station, Tex.). […] Venular blood flow was calculated from the product of mean red blood cell velocity (Vmean =centerline velocity/1.6; Davis, Microvasc. Res., 34, 223-230 (1987)) and microvascular cross-sectional area, assuming cylindrical geometry. Wall shear rate (γ) was calculated based on the Newtonian definition γ=8(Vmean /D).
The number of adherent leukocytes was determined off-line during playback of videotape images. […] Adherent cells were expressed as the number per 100 μm length of venule. The number of emigrated leukocytes was also determined off-line during playback of videotape images. […] Leukocyte emigration was expressed as the number per field of view surrounding the venule. […]

Series [1] concerns microvasculature. The series can be described thus: Lymph flow and lymph protein clearance in cat small intestine transplant. In kind it is in vivo, cats.
A further series deals with rat mesenteric venules. The series can be described thus: Venular diameter, RBC velocity and wall shear rate after ischemia reperfusion. The series is classed as in vivo. The following applies: 100 μM in superfusate. How it is done:
as §1, §2
(§5) An inverted microscope (TMD-25, Diaphoto, Nikon, Tokyo, Japan) with a 40x objective lens (Fluor, Nikon) was used to observe the mesenteric microcirculation. The mesentery was transilluminated with a 12 V-100 W direct current-stabilized light source. A video camera (VK-C150, Hitachi, Ibaragi, Japan) mounted on the microscope projected the image onto a color monitor (PVM-2030, Sony, Tokyo, Japan) and the images were recorded using a videocassette record (NV8950, Panasonic, Tokyo, Japan). A video time-date generator (WJ810, Panasonic) projected the time, date and stopwatch function onto the monitor.
(§6) Single unbranched venules with diameters ranging between 25 and 35 μm and length greater than 150 μm were selected for study. Venular diameter (DV) was measured either on- or off-line using a video caliper (Microcirculation Research Institute, Texas A&M University, College Station, Tex.). Red blood cell centerline velocity (VRBC) was measured in venules using an optical Dopper velocimeter (Microcirculation Research Institute, Texas A&M University, College Station, Tex.). The velocimeter was calibrated against a rotating glass disk coated with red blood cells. Venular blood flow was calculated from the product of mean red blood cell velocity (Vmean =centerline velocity/1.6; Davis, Microvasc. Res., 34, 223-230 (1987)) and microvascular cross-sectional area, assuming cylindrical geometry. Wall shear rate (γ) was calculated based on the Newtonian definition γ=8(Vmean /D).
After all parameters measured on-line were in a steady state, images from the mesenteric preparation were recorded on videotape for 10 min. […] The mesentery was made ischemic for zero (sham ischemia) or 20 min. After the ischemic period, the ligation was gently removed. In some experiments, either sodium nitroprusside (SNP, 100 μM, Sigma Chemical), spermine-NO (SpNO, 100 μM), SIN-1 (100 μM), spermine (SP, 100 μM, Sigma Chemical), or NG-nitro-L-arginine methyl ester (L-NAME, 100 μM, Sigma Chemical) was added to the superfusate and the same protocol was employed. Spermine-NO and SIN-1, which are NO donors, were obtained from the National Institutes of Health, Bethesda, Md. […]

Another series relates to small intestine. The series can be described thus: Water absorption in cat small intestine transplant. The settings on record: during 120 min of reperfusion; 0.1 mmol; vs untreated; FIG. 10. The series is classed as in vivo, cats.
The nature of series [2]: NO release rate / half-life. The series is classed as physicochemical. The settings on record: vs DEA/NO.
The test system of series [3] is platelet-leukocyte aggregates. The experiment in a line: Platelet-leukocyte aggregates after ischemia reperfusion. The series is classed as in vivo, rat. The settings on record: 20 min ischemia, 30 min reperfusion; 100 μM; FIG. 6. Here is the method:
as §1, with “Instruments). […]” for “Instruments).”
as §3
Single unbranched venules with diameters ranging between 25 and 35 μm and length greater than 150 μm were selected for study. Venular diameter (DV) was measured either on- or off-line using a video caliper (Microcirculation Research Institute, Texas A&M University, College Station, Tex.). […] Wall shear rate (γ) was calculated based on the Newtonian definition γ=8(Vmean /D). […]

In a further series the test system is leukocytes. The series can be described thus: Leukocyte adherence and emigration after ischemia reperfusion (mesenteric venules). In kind it is in vivo, rat. The settings on record: 20 min ischemia, 10 and 30 min reperfusion; 100 μM; FIG. 4B. Here is the method: as §1, §2, §5, §6
The number of adherent leukocytes was determined off-line during playback of videotape images. A leukocyte was considered to be adherent to venular endothelium if it remained stationary for a period equal to or greater than 30 seconds (Granger et al., Am. J. Physiol., 257, G683-G688 (1989)). Adherent cells were expressed as the number per 100 μm length of venule. The number of emigrated leukocytes was also determined off-line during playback of videotape images. Any interstitial leukocytes present in the mesentery at the onset of the experiment were subtracted from the total number of leukocytes that accumulated during the course of the experiment. Leukocyte emigration was expressed as the number per field of view surrounding the venule. Platelet-leukocyte aggregates, which were visible within postcapillary venules, were quantitated and expressed as the number of aggregates crossing a fixed point within the venule over a 5 min period. Mast cells in the microvascular beds of the rat mesenteries were visualized by using 0.1% toluidine blue. The number of normal and degranulated mast cells was determined and the percentage of degranulated mast cells was calculated.

Series [4] concerns Chinese hamster V79 lung fibroblasts. The series can be described thus: V79 clonogenic survival, hypoxanthine/xanthine oxidase (HX/XO) cytotoxicity. The settings on record: 1 mM. How it is done: Chinese hamster V79 lung fibroblasts were cultured in F12 medium supplemented with 10% fetal calf serum and antibiotics. Cell survival was assessed by clonogenic assay with 85-95% plating efficiency. Stock cultures of exponentially growing cells were trypsinized, rinsed, and plated (7×10^5 cells/dish) into a number of 100 cm^2 petri dishes and incubated 16 hr at 37° C. prior to experimental protocols.
It has been shown that exposure of V79 cells to hydrogen peroxide results in dose-dependent cytotoxicity (Mitchell et al., supra).
HX and XO were purchased from Boehringer Co. (Indianapolis, Ind.). Nitrite, diethylamine, sulfinamide, diethylenetriaminepentaacetic acid (DETAPAC) and N-(1-naphthyl)ethylenediaminedihydrogenchloride (NEDD) were purchased from Aldrich (Milwaukee, Wis.). Cytosine-β-D-arabinofuranoside and ferricytochrome c were purchased from Sigma (St. Louis, Mo.). DEA/NO and SPER/NO were synthesized as previously described (Maragos et al., (1991), supra).
Exponentially growing cultures of Chinese hamster V79 fibroblasts were exposed to either HX/XO (final concentration of HX was 0.5 mM; 0.08 units/ml XO were used) for various amounts of time (FIG. 1A) or to various concentrations of hydrogen peroxide for one hour (FIG. 1B). […] Additionally, 1 mM DEA/NO was added to medium in the absence of cells, incubated at 37° C. for 1 hr or 16 hrs, and then added just prior to the addition of hydrogen peroxide to evaluate the effects of DEA/NO which had released NO. After treatment, cell monolayers were rinsed twice with phosphate-buffered saline (PBS), trypsinized, counted and plated in triplicate for macroscopic colony formation. Each dose determination was plated in triplicate and experiments were repeated a minimum of two times. Plates were incubated for 7 days, after which colonies were fixed with methanol/acetic acid (3:1), stained with crystal violet, and counted. Colonies containing more than 50 cells were scored.

The subject of series [5] is microvasculature. The experiment in a line: Capillary pressure and vascular resistance in cat small intestine transplant. In kind it is in vivo, cats. The settings on record: FIG. 13.
Another series deals with intestinal mucosa. The series can be described thus: Intestinal blood to lumen 51Cr-EDTA clearance (mucosal permeability) in cat small intestine transplant. The series is classed as in vivo, cats.
A further series has as its system mesenteric venules. The series can be described thus: Albumin leakage across mesenteric venules after ischemia reperfusion. The series is classed as in vivo, rat. The following applies: 10 min and 30 min after reperfusion; 100 μM; FIG. 4C. Here is the method:
as §1, §2, §5, §4
After all parameters measured on-line were in a steady state, images from the mesenteric preparation were recorded on videotape for 10 min. […]

One compound from patent publication US5789447A, “Nitric oxide releasing compounds as protective agents in ischemia reperfusion injury” (priority 1995, dated 1998) can be followed below.

SMILES strings stand for the structures.

Consider `NCCCNCCCCN(CCCN)/[N+]([O-])=N/O` [SpNO, spermine-NO], for which the “degranulation of microvascular mast cells” value with mast cells was “significantly inhibited”. Moreover, the lymph flow result in the series on microvasculature [1] (FIG. 11) is on record as “Increased lymph flow”. In addition, the lymph protein clearance result in the series on microvasculature [1] (FIG. 12) is given as “increased lymph protein clearance”. For the same compound, in the series on rat mesenteric venules (in words), the “reversal of decrease in RBC velocity after reperfusion” value was “reversed the decreases” and the “reversal of decrease in wall shear rate after reperfusion” value is on record as “reversed the decreases”. In the series with rat mesenteric venules (30 min after reperfusion), this compound displayed an RBC velocity of 3.06 ± 0.28 mm/sec, a Venular diameter of 31.8 ± 2.1 μm and a Wall Shear Rate of 480 ± 27 s⁻¹. Further, the water absorption entry in the series with small intestine is on record as “increased significantly”. Further, the “NO release, times slower than DEA/NO” value in series [2] turned out to be 40 times. Moreover, in series [3], the platelet-leukocyte aggregate formation result is “reduced”. In addition, the “reduction of number of emigrated leukocytes” value with leukocytes is 64-71%. Further, the “protection against HX/XO-induced cell killing” value in series [4] is “protected V79 cells against HX/XO induced cytotoxicity but to a lesser extent than DEA/NO”. Further, the capillary pressure result with microvasculature [5] was “Significant elevation”. The “mucosal permeability (51Cr-EDTA clearance)” value with intestinal mucosa (6-hr hypothermic ischemia, 120 min reperfusion, FIG. 9) was “decreased”. In addition, the 51Cr-EDTA clearance result in the series on intestinal mucosa (at 75 and 90 min, 0.1 mmol luminal perfusate) is recorded as “statistically significant decrease”. The “attenuation of albumin leakage” value with mesenteric venules was 70%.
